Measurements taken from patent US20260347373A1, “HETEROCYCLIC COMPOUNDS, COMPOSITIONS THEREOF, AND METHODS OF TREATMENT THEREWITH” (BeOne Medicines I GmbH, priority 2023, published 2026).
pIC50: −log10 of the molar value. Where a name gives a salt, the structure may show the parent alone. Read-outs that look alike come from different tables or passages of the source.

Tests used:
WT KRAS = WT KRAS (Homo sapiens, UniProt P01116); assay: KRAS WT Probe Displacement Assay (TR-FRET, GDP-loaded); format: binding
Chain of WT KRAS (P01116 1-188 isoform P01116-2): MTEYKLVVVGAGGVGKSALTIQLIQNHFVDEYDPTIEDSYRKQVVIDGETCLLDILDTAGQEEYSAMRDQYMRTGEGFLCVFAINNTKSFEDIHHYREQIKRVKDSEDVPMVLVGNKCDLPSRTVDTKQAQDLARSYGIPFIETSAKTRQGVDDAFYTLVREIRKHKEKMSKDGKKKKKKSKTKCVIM
Description: (§1) The synthetic routes of probe 1 and 2, which have been disclosed in PCT/CN2022/070676, are hereby incorporated herein.

KRAS G12D = KRAS G12D (Homo sapiens, UniProt P01116, G12D); assay: KRAS G12D Probe Displacement Assay (TR-FRET, GDP-loaded); format: binding
Chain of KRAS G12D (P01116 1-188 isoform P01116-2 G12D): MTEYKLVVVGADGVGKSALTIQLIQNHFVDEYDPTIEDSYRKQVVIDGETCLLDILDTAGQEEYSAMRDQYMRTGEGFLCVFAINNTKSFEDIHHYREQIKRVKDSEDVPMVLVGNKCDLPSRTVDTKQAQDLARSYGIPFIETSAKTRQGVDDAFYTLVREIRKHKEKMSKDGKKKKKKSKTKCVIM
Description: as §1

[1] = KRAS WT, read-out: KRAS^WT Probe Displacement Assay IC50
[2] = KRAS G12D, read-out: KRAS^G12D Probe Displacement Assay IC50
[3] = KRAS^WT Probe Displacement Assay IC50, KRAS WT
[4] = KRAS^G12D Probe Displacement Assay IC50, KRAS G12D

SMILES | pIC50 (WT KRAS; [1]) | pIC50 (KRAS G12D; [2]) | pIC50 (WT KRAS; [3]) | pIC50 (KRAS G12D; [4])
COC1CN(CC2(COc3nc4c5c(nc(-c6cc(N)cc(C)c6C(F)(F)F)c(F)c5n3)OCC[C@@H]3[C@@H]5CC[C@H](CN43)N5)CC2)C1 [Example 83, 3-((6aR,7S,10R)-1-fluoro-13-((1-((3-methoxyazetidin-1-yl)methyl)cyclopropyl)methoxy)-5,6,6a,7,8,9,10,11-octahydro-4-oxa-3,11a,12,14,15-pentaaza-7,10-methanocyclohepta [4,5]cycloocta [1,2,3-de]naphthalen-2-yl)-5-methyl-4-(trifluoromethyl)aniline] | 6.00 to 8.52 | > 9.52 | – | –
COC1(C)CN(CC2(COc3nc4c5c(nc(-c6cc(N)cc(C)c6C(F)(F)F)c(F)c5n3)OCC[C@@H]3[C@@H]5CC[C@H](CN43)N5)CC2)C1 [Example 84, 3-((6aR,7S,10R)-1-fluoro-13-((1-((3-methoxy-3-methylazetidin-1-yl)methyl)cyclopropyl)methoxy)-5,6,6a,7,8,9,10,11-octahydro-4-oxa-3,11a,12,14,15-pentaaza-7,10-methanocyclohepta [4,5]cycloocta [1,2,3-de]naphthalen-2-yl)-5-methyl-4-(trifluoromethyl)aniline] | 6.00 to 8.52 | > 9.52 | – | –
Cc1cc(N)cc(-c2nc3c4c(nc(OCC5(CN6CC7(CCOCC7)C6)CC5)nc4c2F)N2C[C@H]4CC[C@H](N4)[C@H]2CCO3)c1C(F)(F)F [Example 85, 3-((6aR,7S,10R)-13-((1-((7-oxa-2-azaspiro[3.5]nonan-2-yl)methyl)cyclopropyl)methoxy)-1-fluoro-5,6,6a, 7,8,9,10,11-octahydro-4-oxa-3,11a,12,14,15-pentaaza[7,10]methanocyclohepta [4,5]cycloocta [1,2,3-de]naphthalen-2-yl)-5-methyl-4-(trifluoromethyl)aniline] | 8.52 to 9.52 | > 9.52 | – | –
Cc1cc(N)cc(-c2nc3c4c(nc(OCC5(CN6CC[C@@H](F)C6)CC5)nc4c2F)N2C[C@H]4CC[C@H](N4)[C@H]2CCO3)c1C(F)(F)F [Example 86, 3-((6aR,7S,10R)-1-fluoro-13-((1-(((R)-3-fluoropyrrolidin-1-yl)methyl)cyclopropyl)methoxy)-5,6,6a,7,8,9,10,11-octahydro-4-oxa-3,11a,12,14,15-pentaaza-7,10-methanocyclohepta [4,5]cycloocta [1,2,3-de]naphthalen-2-yl)-5-methyl-4-(trifluoromethyl) aniline] | – | – | 6.00 to 8.52 | > 9.52
CO[C@@H]1CCN(CC2(COc3nc4c5c(nc(-c6cc(N)cc(C)c6C(F)(F)F)c(F)c5n3)OCC[C@@H]3[C@@H]5CC[C@H](CN43)N5)CC2)C1 [Example 87, 3-((6aR,7S,10R)-1-fluoro-13-((1-(((R)-3-methoxypyrrolidin-1-yl)methyl)cyclopropyl)methoxy)-5,6,6a,7,8,9,10,11-octahydro-4-oxa-3,11a,12,14,15-pentaaza-7,10-methanocyclohepta [4,5]cycloocta [1,2,3-de]naphthalen-2-yl)-5-methyl-4-(trifluoromethyl)aniline] | 6.00 to 8.52 | > 9.52 | – | –
CO[C@H]1CCN(CC2(COc3nc4c5c(nc(-c6cc(N)cc(C)c6C(F)(F)F)c(F)c5n3)OCC[C@@H]3[C@@H]5CC[C@H](CN43)N5)CC2)C1 [Example 88, 3-((6aR,7S,10R)-1-fluoro-13-((1-(((S)-3-methoxypyrrolidin-1-yl)methyl)cyclopropyl)methoxy)-5,6,6a,7,8,9,10,11-octahydro-4-oxa-3,11a,12,14,15-pentaaza-7,10-methanocyclohepta [4,5]cycloocta [1,2,3-de]naphthalen-2-yl)-5-methyl-4-(trifluoromethyl) aniline] | – | – | 6.00 to 8.52 | > 9.52
Cc1cc(N)cc(-c2nc3c4c(nc(OCC5(CN6CCC(F)(F)C6)CC5)nc4c2F)N2C[C@H]4CC[C@H](N4)[C@H]2CCO3)c1C(F)(F)F [Example 89, 3-((6aR,7S,10R)-13-((1-((3,3-difluoropyrrolidin-1-yl)methyl)cyclopropyl)methoxy)-1-fluoro-5,6,6a,7,8,9,10,11-octahydro-4-oxa-3,11a,12,14,15-pentaaza-7,10-methanocyclohepta [4,5]cycloocta [1,2,3-de]naphthalen-2-yl)-5-methyl-4-(trifluoromethyl) aniline] | – | – | 6.00 to 8.52 | > 9.52
Cc1cc(N)cc(-c2nc3c4c(nc(OCC5(CN6CCC(C(F)(F)F)C6)CC5)nc4c2F)N2C[C@H]4CC[C@H](N4)[C@H]2CCO3)c1C(F)(F)F (stereo partly drawn) [Example 91, 3-((6aR,7S,10R)-1-fluoro-13-((1-((3-(trifluoromethyl)pyrrolidin-1-yl)methyl)cyclopropyl)methoxy)-5,6,6a,7,8,9,10,11-octahydro-4-oxa-3,11a,12,14,15-pentaaza-7,10-methanocyclohepta [4,5]cycloocta [1,2,3-de]naphthalen-2-yl)-5-methyl-4-(trifluoromethyl)aniline] | 6.00 to 8.52 | > 9.52 | – | –
Cc1cc(N)cc(-c2nc3c4c(nc(OCC5(CN6CCC(C)(O)C6)CC5)nc4c2F)N2C[C@H]4CC[C@H](N4)[C@H]2CCO3)c1C(F)(F)F (stereo partly drawn) [Example 93, 1-((1-((((6aR,7S, 10R)-2-(5-amino-3-methyl-2-(trifluoromethyl)phenyl)-1-fluoro-5,6,6a,7,8,9,10,11-octahydro-4-oxa-3,11a,12,14,15-pentaaza-7,10-methanocyclohepta [4,5]cycloocta[1,2,3-de]naphthalen-13-yl)oxy)methyl)cyclopropyl)methyl)-3-methylpyrrolidin-3-ol] | 6.00 to 8.52 | > 9.52 | – | –
Cc1cc(N)cc(-c2nc3c4c(nc(OCC5(CN6C[C@H]7C[C@H]7[C@@H]6CO)CC5)nc4c2F)N2C[C@H]4CC[C@H](N4)[C@H]2CCO3)c1C(F)(F)F [Example 96, ((1R,2R,5S)-3-((1-((((6aR,7S,10R)-2-(5-amino-3-methyl-2-(trifluoromethyl)phenyl)-1-fluoro-5,6,6a,7,8,9,10,11-octahydro-4-oxa-3,11a,12,14,15-pentaaza-7,10-methanocyclohepta [4,5]cycloocta[1,2,3-de]naphthalen-13-yl)oxy)methyl)cyclopropyl)methyl)-3-azabicyclo [3.1.0]hexan-2-yl) methanol] | 6.00 to 8.52 | > 9.52 | – | –
Cc1cc(N)cc(-c2nc3c4c(nc(OCC5(CN6C[C@@H]7C[C@@H]7[C@H]6CO)CC5)nc4c2F)N2C[C@H]4CC[C@H](N4)[C@H]2CCO3)c1C(F)(F)F [Example 97, ((1S,2S,5R)-3-((1-((((6aR,7S,10R)-2-(5-amino-3-methyl-2-(trifluoromethyl)phenyl)-1-fluoro-5,6,6a,7,8,9,10,11-octahydro-4-oxa-3,11a,12,14,15-pentaaza-7,10-methanocyclohepta [4,5]cycloocta,[1,2,3-de]naphthalen-13-yl)oxy)methyl)cyclopropyl)methyl)-3-azabicyclo [3.1.0]hexan-2-yl) methanol] | 6.00 to 8.52 | > 9.52 | – | –
Cc1cc(N)cc(-c2nc3c4c(nc(OCC5(CN6C[C@H]7C[C@H]7[C@H]6CO)CC5)nc4c2F)N2C[C@H]4CC[C@H](N4)[C@H]2CCO3)c1C(F)(F)F [Example 98, ((1R,2S,5S)-3-((1-((((6aR,7S,10R)-2-(5-amino-3-methyl-2-(trifluoromethyl)phenyl)-1-fluoro-5,6,6a,7,8,9,10,11-octahydro-4-oxa-3,11a,12,14,15-pentaaza-7,10-methanocyclohepta [4,5]cycloocta[1,2,3-de]naphthalen-13-yl)oxy)methyl)cyclopropyl)methyl)-3-azabicyclo [3.1.0]hexan-2-yl) methanol] | 6.00 to 8.52 | > 9.52 | – | –
Cc1cc(N)cc(-c2nc3c4c(nc(OCC5(CN6C[C@H]7COC[C@H]7C6)CC5)nc4c2F)N2C[C@H]4CC[C@H](N4)[C@H]2CCO3)c1C(F)(F)F [Example 100, 3-((6aR,7S,10R)-1-fluoro-13-((1-(((3aR,6aS)-tetrahydro-1H-furo[3,4-c]pyrrol-5(3H)-yl)methyl)cyclopropyl)methoxy)-5,6,6a,7,8,9,10,11-octahydro-4-oxa-3,11a,12,14,15-pentaaza-7,10-methanocyclohepta [4,5]cycloocta [1,2,3-de]naphthalen-2-yl)-5-methyl-4-(trifluoromethyl) aniline] | – | – | 8.52 to 9.52 | > 9.52
Cc1cc(N)cc(-c2nc3c4c(nc(OCC5(CN6CCC7(CCOCC7)C6)CC5)nc4c2F)N2C[C@H]4CC[C@H](N4)[C@H]2CCO3)c1C(F)(F)F [Example 101, 3-((6aR,7S,10R)-13-((1-((8-oxa-2-azaspiro[4.5]decan-2-yl)methyl)cyclopropyl)methoxy)-1-fluoro-5,6,6a, 7,8,9,10,11-octahydro-4-oxa-3,11a,12,14,15-pentaaza[7,10]methanocyclohepta [4,5]cycloocta[1,2,3-de]naphthalen-2-yl)-5-methyl-4-(trifluoromethyl) aniline formate] | – | – | 6.00 to 8.52 | > 9.52
Cc1cc(N)cc(-c2nc3c4c(nc(OCC5(CN6CCC7(CC6)COC7)CC5)nc4c2F)N2C[C@H]4CC[C@H](N4)[C@H]2CCO3)c1C(F)(F)F [Example 102, 3-((6aR,7S,10R)-13-((1-((2-oxa-7-azaspiro[3.5]nonan-7-yl)methyl)cyclopropyl)methoxy)-1-fluoro-5,6,6a,7,8,9,10,11-octahydro-4-oxa-3,11a,12,14,15-pentaaza[7,10]methanocyclohepta [4,5]cycloocta [1,2,3-de]naphthalen-2-yl)-5-methyl-4-(trifluoromethyl)aniline] | 8.52 to 9.52 | > 9.52 | – | –
Cc1cc(N)cc(-c2nc3c4c(nc(OCC5(CN6CCCOCC6)CC5)nc4c2F)N2C[C@H]4CC[C@H](N4)[C@H]2CCO3)c1C(F)(F)F [Example 103, 3-((6aR,7S,10R)-13-- ((1-((1,4-oxazepan-4-yl)methyl)cyclopropyl)methoxy)-1-fluoro-5,6,6a,7,8,9,10,11-octahydro-4-oxa-3,11a, 12,14,15-pentaaza-7,10-methanocyclohepta [4,5]cycloocta [1,2,3-de]naphthalen-2-yl)-5-methyl-4-(trifluoromethyl)aniline] | 6.00 to 8.52 | > 9.52 | – | –
